The test system of one experiment is BC. The arrangement: method as in PMID 4922289. As to conditions: % activity of biotin; cited from earlier work.
The subject of experiment [1] is efflux compromised E. coli (ΔtolC::tet). As to conditions: cited from earlier work.
Experiment [2] relates to efflux compromised P. aeruginosa strain PAO397. Also on record: method as in PMID 26169404. As to conditions: cited from earlier work.
The target in experiment [3] is T1, biotin carboxylase (BC) (Escherichia coli, UniProt P24182).
T1 construct: His tag (N); made in house
The experiment can be described thus: Biotin carboxylase inhibition versus ADP (EnzChek Pi assay). Format: biochemical. As to conditions: ADP varied 0.19-19 µM; ATP 0.6 mM; biotin 40 mM; SABA1 100 µM; fit to Equation (5). On the procedure:
(§1) For inhibition studies that varied ATP or biotin, initial velocities were measured as previously reported. In brief, pyruvate kinase and lactic dehydrogenase were used to couple ADP production to NADH oxidation, which can be measured spectrophotometrically at 340 nm. For inhibition studies varying ADP, activity was determined by following the production of inorganic phosphate (Pi) using the EnzChek® Phosphate Assay Kit (Molecular Probes) according to the manufacturer’s protocol. In brief, purine nucleoside phosphorylase converts 2-amino-6-mercapto-7-methylpurine riboside to ribose 1-phosphate and 2-amino-6-mercapto-7-methylpurine in the presence of Pi. This reaction is monitored at […][32]. Kinetic data were collected on a Cary60 UV-Vis spectrophotometer (Agilent Technologies)
To determine the inhibition pattern versus ADP using the Pi assay, ADP was varied from 0.19 µM to 19 µM. ATP was held constant at 0.6 mM, biotin was held constant 40 mM, and SABA1 was held constant at 100 µM. Each reaction cocktail was incubated in the presence or absence of SABA1 for 10 min. The reaction was started by addition of biotin.
Data for inhibition studies varying ADP were analysed by nonlinear regression using the program Enzfitter[34]. […]

Experiment [4] has as its target T1, biotin carboxylase (BC). Kind of experiment: Multiple inhibition assay (Yonetani-Theorell) on BC. Particulars: aminooxazole varied 0.2-3.2 µM at fixed SABA1 0, 75, 150 µM; ATP 0.2 mM, biotin 40 mM; intersecting pattern. The format is biochemical. The protocol:
To determine the multiple inhibition pattern with respect to ATP, aminooxazole was varied from 0.2 µM to 3.2 µM. SABA1 was held at fixed concentrations of 0.0 µM, 75 µM, or 150 µM. ATP and biotin were held constant at 0.2 mM and 40 mM, respectively. To determine the multiple inhibition pattern with respect to biotin, desthiobiotin was varied from 1.0 mM to 20 mM. SABA1 was held at fixed concentrations of 0.0 µM, 75 µM, or 150 µM. ATP and biotin were held constant at 0.2 mM and 40 mM, respectively.
Multiple inhibition data were fitted to Equation (3) where v is the experimentally determined velocity, V is maximal velocity, L and J are the concentration of the two inhibitors, KL and KJ are the apparent inhibition constants of those respective inhibitors, and α is the interaction factor of the two inhibitors. (3) v=V/1+L/KL+J/KJ+LJ/αKLKJ
Competitive inhibition means that binding of the inhibitor and the substrate to the enzyme are mutually exclusive. […] To determine if SABA1 can bind in the ATP binding site, biotin binding site or both, multiple inhibition analysis was performed as described by Yonetani and Theorell[42]. Multiple inhibition analysis is used to define the topological relationship between two different enzyme inhibitors. Initial velocities are measured while one inhibitor is varied against fixed increasing concentrations of the second inhibitor. […]

For experiment [5], the target named is T1, biotin carboxylase (BC). Kind of experiment: Biotin carboxylase inhibition assay, ATP or biotin varied (pyruvate kinase/lactic dehydrogenase coupled). Format: biochemical. Particulars: SABA1 0, 75, 150 µM. On the procedure: as §1
To determine the inhibition pattern versus ATP, ATP was varied from 0.05 mM to 1.0 mM. SABA1 was held at fixed concentrations of 0.0 µM, 75 µM, or 150 µM. Biotin was held constant at 40 mM. […]
Data for inhibition studies varying ATP or biotin were analysed by nonlinear regression using the programs of Cleland[33]. Competitive inhibition data were fitted to Equation (1) where v is the experimentally determined velocity, V is maximal velocity, A is substrate concentration, Km is the Michaelis constant, I is inhibitor concentration and Kis is the inhibition constant for the slope. […]

For the next experiment, the system named is E. coli ACC. Also on record: method as in PMID 26169404. Particulars: cited from earlier work.
The target of experiment [6] is T2, Acetyl-CoA carboxylase (ACC) (Escherichia coli, UniProt P24182).
T2 construct: His tag (N); made in house
Kind of experiment: ACC assay, ATP varied (BC:BCCP:CT 1:2:1). Format: biochemical. Particulars: ATP varied 1.0-16 µM, acetyl-CoA 0.20 mM, SABA1 0, 50, 100 µM. On the procedure:
As stated above, the components of ACC were purified separately. Purified BC, BCCP, and CT were combined in a 1:2:1 molar ratio and allowed to equilibrate for 1 h prior to assaying ACC. To determine the inhibition pattern versus ATP, ATP was varied from 1.0 µM to 16 µM. SABA1 was held at fixed concentrations of 0.0 µM, 50 µM, or 100 µM. Acetyl-CoA was held constant at 0.20 mM. The reaction was started by the addition of enzyme.
Non-competitive inhibition data were fitted to Equation (2) where v is the experimentally determined velocity, V is maximal velocity, A is substrate concentration, Km is the Michaelis constant, I is inhibitor concentration and Kii is the inhibition constant for the intercept and Kis is the inhibition constant for the slope. (2) v=VA/Km(1+I/Kis)+A(1+I/Kii)

The structures appear in SMILES notation. Where two headings read alike, the source gives them in different places.

Consider `C[C@@H]1NC(=O)N[C@@H]1CCCCCC(=O)O` [Desthiobiotin], for which the “activity as slow alternate substrate, relative to biotin” value with BC was 0.2%.
Regarding `CCOC(=O)c1ccc(NS(=O)(=O)c2cc(C(=O)Nc3ccccc3)ccc2Cl)cc1` [SABA1, ethyl 4-[[2-chloro-5-(phenylcarbamoyl)phenyl]sulfonylamino]benzoate], the MIC in experiment [1] was 0.45 to 0.9 µM. The “prolongs the doubling time” value in experiment [2] is recorded as 30%. The “Ki, uncompetitive inhibition versus ADP” value at biotin carboxylase (BC) [3] is recorded as 10.3 ± 0.1 µM. For the same compound, the “α value (interaction factor of the two inhibitors)” value on biotin carboxylase (BC) [4] is recorded as 0.6. For the same compound, the Ki at biotin carboxylase (BC) [5] (ATP varied 0.05-1.0 mM, biotin constant 40 mM (subsaturating), read-out: Kis, competitive inhibition versus ATP) was found to be 242 ± 32 µM; on biotin carboxylase (BC) [5] (biotin varied 20-200 mM, ATP constant 0.2 mM (subsaturating), read-out: Kis, competitive inhibition versus biotin), 142 ± 12.3 µM; in experiment [6] (read-out: Kii, non-competitive inhibition versus ATP), 23.3 ± 4.4 µM; in experiment [6] (read-out: Kis, non-competitive inhibition versus ATP) it was 96.3 ± 31.6 µM. For the same compound, the half-inhibitory concentration (IC50) in the experiment with E. coli ACC is 4 µM.
